We go through nine compounds from US12371454B2, “Cyclic peptide compound having Kras inhibitory action” (priority 2019, dated 2025).

pIC50: −log10 of the molar value. Starred links: 1 amine or outer side, 2 acyl side, 3 side chain; linkers in the order of their positions; H or OH if unused. Positions of bridges follow the written chain, without caps; N, C: chain ends. Non-standard residues stand in square brackets, D forms with d. Residues, ends and D or L forms follow the SMILES beside them. *: point of attachment. hPhe(3-Cl-4-CF3) = N[C@@H](CCc1ccc(C(F)(F)F)c(Cl)c1)C(=O)O; hPhe(3-F,4-CF3) = N[C@@H](CCc1ccc(C(F)(F)F)c(F)c1)C(=O)O; hPhe(4-CF3) = N[C@@H](CCc1ccc(C(F)(F)F)cc1)C(=O)O; NEtPhe(4-Cl) = CCN[C@@H](Cc1ccc(Cl)cc1)C(=O)O; NMePhe(4-Cl) = CN[C@@H](Cc1ccc(Cl)cc1)C(=O)O; NMePhe(2-Me) = CN[C@@H](Cc1ccccc1C)C(=O)O; NMedβ3hAla = C[C@H](CC(=O)[*:2])N(C)[*:1]; NMeGly(cPent) = CN[C@H](C(=O)O)C1CCCC1; Phe(3-I) = N[C@@H](Cc1cccc(I)c1)C(=O)O; dβ3hPip = O=C(C[C@H]1CCCCN1[*:1])[*:2]; NMeY = CN[C@@H](Cc1ccc(O)cc1)C(=O)O; NMeCha = CN[C@@H](CC1CCCCC1)C(=O)O; NMeAllylGly = C=CC[C@H](NC)C(=O)O; NMeChg = CN[C@H](C(=O)O)C1CCCCC1; NMeF = CN[C@@H](Cc1ccccc1)C(=O)O; NMeD = CN[C@@H](CC(=O)O)C(=O)O; NMeL = CN[C@@H](CC(C)C)C(=O)O; NMeV = CN[C@H](C(=O)O)C(C)C; d(β3hA) = C[C@@H](N)CC(=O)O; NMeA = CN[C@@H](C)C(=O)O; NMeAib = CNC(C)(C)C(=O)O; Nle = CCCC[C@H](N)C(=O)O; Piperidide = C1CCN(*)CC1; Ac5c = NC1(C(=O)O)CCCC1; Aze = O=C(O)[C@@H]1CCN1; Nva = CCC[C@H](N)C(=O)O; Thp = NC1(C(=O)O)CCOCC1; Sar = CNCC(=O)O

The assay deals with T1, Kras and SOS1 (biotin-tagged human Kras loaded with GDP, His-tagged human SOS1) (Homo sapiens, UniProt P01116, G12D).
T1 construct: made in house; host or cells: E. coli (stated for Kras only)
T1 sequence (P01116 1-188 isoform P01116-2 G12D): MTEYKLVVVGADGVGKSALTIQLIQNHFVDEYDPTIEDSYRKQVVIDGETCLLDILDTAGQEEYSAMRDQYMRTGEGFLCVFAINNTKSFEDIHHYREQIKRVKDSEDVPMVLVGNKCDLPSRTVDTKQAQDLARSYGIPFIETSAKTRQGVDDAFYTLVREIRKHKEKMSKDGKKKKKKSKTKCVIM
As to the kind of experiment: Protein-protein interaction inhibition between Kras and SOS1 (KrasGl2D-SOS PPI) using AlphaScreen. Format: binding. Particulars: AlphaScreen; biotin-tagged human Kras loaded with GDP, His-tagged human SOS1; read-out: KRAS G12D-SOS PPI IC50. In outline:
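Energy transfer from nickel-chelate donor beads bound to His-SOS1 to streptavidin acceptor beads bound to biotin-Kras, expressed in E. coli and loaded with GDP after purification, was monitored. Donors were excited at 680 nm; singlet oxygen reaching acceptors gave emission read at 520-620 nm.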
(In general: Bead proximity is the source of the signal in Alpha formats.)
For `CC[C@H](C)[C@@H]1NC(=O)[C@H](CC(C)C)N(C)C(=O)C[C@@H](C(=O)N2CCCCC2)N(C)C(=O)[C@H](C2CCCCC2)N(C)C(=O)C2(CCCC2)NC(=O)[C@H](Cc2ccc(OC)cc2)N(C)C(=O)[C@H](CCc2ccc(C(F)(F)F)c(Cl)c2)NC(=O)CN(C)C(=O)[C@H](CC2CCCCC2)N(C)C(=O)CN(C)C(=O)CN(C)C1=O` [Compound 2171] ([NMeL]I[Sar][Sar][NMeCha][Sar][hPhe(3-Cl-4-CF3)][NMeY](Me)[Ac5c][NMeChg][NMeD]-Piperidide; lactam N-11), the pIC50 (commonly the negative decadic logarithm of the IC50, by convention in mol/L) is 6.92.
With `C=CC[C@H]1C(=O)NC2(CCCC2)C(=O)N(C)[C@@H](C(C)C)C(=O)N(C)[C@H](C(=O)N2CCCCC2)CC(=O)N(C)[C@@H](CC(C)C)C(=O)N[C@@H]([C@@H](C)CC)C(=O)N(C)[C@@H](C)C(=O)N2CC[C@H]2C(=O)N(C)[C@@H](CC2CCCCC2)C(=O)N(C)CC(=O)N[C@@H](CCc2ccc(C(F)(F)F)c(Cl)c2)C(=O)N1C` [Compound 1447] ([NMeL]I[NMeA][Aze][NMeCha][Sar][hPhe(3-Cl-4-CF3)][NMeAllylGly][Ac5c][NMeV][NMeD]-Piperidide; lactam N-11), the negative logarithm of the IC50 (pIC50) is 7.00.
`CCCC[C@@H]1NC(=O)[C@H](CCc2ccc(C(F)(F)F)c(Cl)c2)NC(=O)CN(C)C(=O)[C@H](Cc2ccc(Cl)cc2)N(CC)C(=O)CN(C)C(=O)CN(C)C(=O)[C@H]([C@@H](C)CC)NC(=O)[C@H](CC(C)C)N(C)C(=O)C[C@@H](C(=O)N2CCCCC2)N(C)C(=O)[C@H](CC(C)C)NC(=O)C(C)(C)N(C)C1=O` [Compound 895] ([NMeL]I[Sar][Sar][NEtPhe(4-Cl)][Sar][hPhe(3-Cl-4-CF3)][Nle][NMeAib]L[NMeD]-Piperidide; lactam N-11): the pIC50 is 8.08.
In the case of `CCCC[C@@H]1NC(=O)C(C)(C)N(C)C(=O)[C@H](CCCC)NC(=O)[C@H](Cc2cccc(I)c2)NC(=O)CN(C)C(=O)[C@H](Cc2ccc(Cl)cc2)N(C)C(=O)CN(C)C(=O)CN(C)C(=O)[C@H]([C@@H](C)CC)NC(=O)[C@H](CC(C)C)N(C)C(=O)C[C@@H](C(=O)N2CCCCC2)N(C)C1=O` [Compound 765] ([NMeL]I[Sar][Sar][NMePhe(4-Cl)][Sar][Phe(3-I)][Nle][NMeAib][Nle][NMeD]-Piperidide; lactam N-11), the pIC50 is 7.30.
Regarding `CC[C@H](C)[C@@H]1NC(=O)[C@H](CC(C)C)N(C)C(=O)C[C@H]2CCCCN2C(=O)[C@H](C(C)C)N(C)C(=O)C2(CCCC2)NC(=O)[C@@H]2CCCN2C(=O)[C@H](CCc2ccc(C(F)(F)F)c(F)c2)NC(=O)CN(C)C(=O)[C@H](CC2CCCCC2)N(C)C(=O)CN(C)C(=O)CN(C)C1=O` [Compound 142] (cyclo([Ac5c][NMeV][dβ3hPip][NMeL]I[Sar][Sar][NMeCha][Sar][hPhe(3-F,4-CF3)]P)), the negative logarithm of the IC50 (pIC50) is 7.42.
In the case of `CC[C@H](C)[C@@H]1NC(=O)[C@H](C)N(C)C(=O)C[C@@H](C)NC(=O)[C@H](CC(C)C)N(C)C(=O)[C@H](Cc2ccccc2)N(C)C(=O)[C@@H]2CCN2C(=O)[C@H](CCc2ccc(C(F)(F)F)cc2)NC(=O)CN(C)C(=O)[C@H](Cc2ccc(Cl)cc2)N(C)C(=O)CN(C)C(=O)CN(C)C1=O` [Compound 654] (cyclo([Aze][NMeF][NMeL][d(β3hA)][NMeA]I[Sar][Sar][NMePhe(4-Cl)][Sar][hPhe(4-CF3)])), the pIC50 was 6.96.
Regarding `CC[C@H](C)[C@@H]1NC(=O)[C@H](CC(C)C)N(C)C(=O)C[C@@H](C)N(C)C(=O)[C@H](CC(C)C)N(C)C(=O)C2(CCOCC2)NC(=O)[C@@H]2CCCN2C(=O)[C@H](CCc2ccc(C(F)(F)F)c(F)c2)NC(=O)CN(C)C(=O)[C@H](CC2CCCCC2)N(C)C(=O)CN(C)C(=O)CN(C)C1=O` [Compound 407] (cyclo(I[Sar][Sar][NMeCha][Sar][hPhe(3-F,4-CF3)]P[Thp][NMeL][NMedβ3hAla][NMeL])), the negative logarithm of the IC50 (pIC50) was 7.41.
Take `CC[C@H](C)[C@@H]1NC(=O)[C@H](CC(C)C)N(C)C(=O)C[C@@H](C(=O)N(C)C)N(C)C(=O)[C@H](C2CCCC2)N(C)C(=O)C2(CCCC2)NC(=O)[C@H](Cc2ccccc2C)N(C)C(=O)[C@H](CCc2ccc(C(F)(F)F)c(Cl)c2)NC(=O)CN(C)C(=O)[C@H](CC2CCCCC2)N(C)C(=O)[C@@H]2CCN2C(=O)[C@H](C)N(C)C1=O` [Compound 1880] ([NMeL]I[NMeA][Aze][NMeCha][Sar][hPhe(3-Cl-4-CF3)][NMePhe(2-Me)][Ac5c][NMeGly(cPent)][NMeD]-NMe2; lactam N-11): the pIC50 is 7.89.
On to `CCC[C@@H]1NC(=O)[C@H](CC(C)C)N(C)C(=O)C[C@@H](C(=O)N2CCCCC2)N(C)C(=O)[C@H](C2CCCCC2)N(C)C(=O)C2(CCCC2)NC(=O)[C@@H]2CCCN2C(=O)[C@H](CCc2ccc(C(F)(F)F)c(Cl)c2)NC(=O)CN(C)C(=O)[C@H](CC2CCCCC2)N(C)C(=O)CN(C)C(=O)CN(C)C1=O` [Compound 495] ([NMeL][Nva][Sar][Sar][NMeCha][Sar][hPhe(3-Cl-4-CF3)]P[Ac5c][NMeChg][NMeD]-Piperidide; lactam N-11), for which the negative logarithm of the IC50 (pIC50) is 8.49.
